Measurements: US8633324B2, “Denibulin di-hydrochloride” (Medicinova, Inc., priority 2011, dated 2014)
Structures can show the parent of a compound that is named as a salt.

Test: Osmolality and pH of solutions in water and in 15% HPBCD
Assay type: physicochemical
Description: Solutions were prepared by weighing MN-029 di-hydrochloride salt into 10-mL volumetric flasks. The drug was dissolved in water with vortexing, and samples were diluted to volume with water. Solutions of 1, 2, 4, 6 and 8 mg/mL were made according to this procedure. The samples were allowed to sit at room temperature overnight prior to pH and osmolality measurements.
All samples were clear except for the 8 mg/mL solution, which was initially clear but precipitated upon sitting overnight. As shown in Table 10 and in FIGS. 9 and 10, the pH declined in an almost linear fashion with increasing drug concentration while osmolality increased linearly with concentration up to 6 mg/mL.
The pH and osmolality were also measured for solutions of MN-029 di-hydrochloride salt in a 15% solution of hydroxypropyl-β-cyclodextrin (HPBCD). Solutions of 5, 10, 15, 20, and 30 mg/mL were prepared for analysis. The solutions were made by weighing out an appropriate amount of the compound into HPLC vials to which 1.00 mL of 15% HPBCD was added with brief vortexing. Although solutions were clear upon mixing, they were shaken overnight on an orbital shaker to assure equilibration. All solutions remained clear after overnight shaking. HPBCD at a concentration of 15% was sufficient to solubilize MN-029 di-hydrochloride up to a concentration of 30 mg/mL. As shown in Table 11 and in FIGS. 11 and 12, the pH decreased almost linearly with increasing MN-029 di-hydrochloride concentration, while the osmolality increased linearly. The dotted lines on the pH graphs (FIGS. 9 and 11) connect the data points for clarity while the dotted lines on the osmolality graphs (FIGS. 10 and 12) are linear regressions of the data which are extrapolated back to zero drug concentration.

[1] = In Deionized Water, 8.00* mg/mL (precipitated upon sitting overnight)

In the case of `COC(=O)Nc1nc2ccc(Sc3ccc(NC(=O)[C@H](C)N)cc3)cc2[nH]1` [MN-029 di-hydrochloride, carbamic acid N-[6-[[4-[[(2S)-2-amino-1-oxopropyl]amino]phenyl]thio]-1H-benzimidazol-2-yl]-methyl ester di-hydrochloride], the solubility (15% HPBCD solution, aqueous with cosolvent or surfactant or cyclodextrin, thermodynamic from solid, read-out: concentration solubilized by 15% HPBCD (solutions clear after overnight shaking)) is reported as at least 30 mg/mL, the Osmolality (In 15% HPBCD, 5.35 mg/mL) is reported as 162 mOsm/kg and the pH (In 15% HPBCD, 5.35 mg/mL) is reported as 2.40. For the same compound, the Osmolality (In 15% HPBCD, 10.1 mg/mL) was 182 mOsm/kg, the pH (In 15% HPBCD, 10.1 mg/mL) was 2.21 and the Osmolality (In 15% HPBCD, 15.3 mg/mL) was 203 mOsm/kg. The pH (In 15% HPBCD, 15.3 mg/mL) was 2.10, the Osmolality (In 15% HPBCD, 20.1 mg/mL) was 221 mOsm/kg and the pH (In 15% HPBCD, 20.1 mg/mL) was 2.04. It also gave an Osmolality (In 15% HPBCD, 30.1 mg/mL) of 259 mOsm/kg, a pH (In 15% HPBCD, 30.1 mg/mL) of 1.89 and an Osmolality (In Deionized Water, 1.05 mg/mL) of 6 mOsm/kg. It also gave a pH (In Deionized Water, 1.05 mg/mL) of 3.25, an Osmolality (In Deionized Water, 2.04 mg/mL) of 11 mOsm/kg and a pH (In Deionized Water, 2.04 mg/mL) of 3.03. It also gave an Osmolality (In Deionized Water, 4.03 mg/mL) of 22 mOsm/kg, a pH (In Deionized Water, 4.03 mg/mL) of 2.82 and an Osmolality (In Deionized Water, 5.96 mg/mL) of 32 mOsm/kg. The pH (In Deionized Water, 5.96 mg/mL) was 2.63, the Osmolality [1] was 36* mOsm/kg and the pH [1] was 1.90*.
